Counter-ions that a name gives are not always drawn.
Tested on: HCT116
Settings: 72 h
Outline: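 IC50 and maximal efficacy were derived from four-parameter Hill curve fits. The underlying CellTiter-Glo luminescence was scaled so that vehicle equals 0% and positive control equals -100%, and was then pattern-corrected. HCT116 cells had been seeded in 1536-well plates at 250 per well.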

| Structure (SMILES) | IC50 cell viability (ICRF193 0 nM) [µM] | IC50 cell viability (ICRF193 200 nM) [µM] |
| --- | --- | --- |
| C[C@]12CCC(=O)C[C@@H]1CC[C@@H]1[C@@H]2CC[C@]2(C)C=CC[C@@H]12 [Androstenone] | > 45.8 | > 45.8 |
| CCCCCOc1ccc(-c2cc(-c3ccc(C(=O)N[C@H]4C[C@@H](O)[C@@H](O)NC(=O)[C@@H]5[C@@H](O)[C@@H](C)CN5C(=O)[C@H]([C@H](O)CC(N)=O)NC(=O)[C@H]([C@H](O)[C@@H](O)c5ccc(O)c(OS(=O)(=O)O)c5)NC(=O)[C@@H]5C[C@@H](O)CN5C(=O)[C@H]([C@@H](C)O)NC4=O)cc3)no2)cc1 [Micafunginsodium] | > 45.8 | > 45.8 |
| CCOC(=O)[C@H](C)C[C@@H](Cc1ccc(-c2ccccc2)cc1)NC(=O)CCC(=O)O [AHU-377] | > 45.8 | > 45.8 |
| Nc1ccc(O)c(C(=O)O)c1 [5-Aminosalicylic acid] | > 45.8 | > 45.8 |
| Cc1cnc(NC(=O)C2=C(O)c3ccccc3S(=O)(=O)N2C)s1 [MELOXICAM SODIUM] | > 45.8 | > 45.8 |
| CN1CCN(c2c(F)cc3c(=O)c(C(=O)O)cn(CCF)c3c2F)CC1 [Fleroxacin] | > 45.8 | > 45.8 |
| COc1cc(/C=C/C(=O)N2CCN(CC(=O)N3CCCC3)CC2)cc(OC)c1OC [Cinepazide Maleate] | > 45.8 | > 45.8 |
| Cc1ccccc1/N=N/c1ccc(/N=N/c2c(O)ccc3ccccc23)c(C)c1 [C.I. Solvent Red 24] | > 45.8 | > 45.8 |
| CCC(=O)NC[C@@H]1C[C@H]1c1cccc2c1CCO2 [Tasimelteon] | > 45.8 | > 45.8 |
| O=[N+]([O-])c1ccccc1 [Nitrobenzene] | > 45.8 | > 45.8 |
| CCN(CC)CCOC(=O)c1cccnc1 [Nicametate citrate] | > 45.8 | > 45.8 |
| C[C@H](NCc1ccc(OCc2cccc(F)c2)cc1)C(N)=O [Safinamide] | > 45.8 | > 45.8 |
| CN1C(=O)CC(C)(c2ccccc2)C1=O (stereo not drawn) [Methsuximide] | > 45.8 | > 45.8 |
| CCC(=O)NS(=O)(=O)c1ccc(-c2c(-c3ccccc3)noc2C)cc1 [Parecoxib] | > 45.8 | > 45.8 |
| NC12CC3CC(CC(C3)C1)C2 [Amantadine hydrochloride] | > 45.8 | > 45.8 |
| NC(=O)CCCCC1CCSS1 (stereo not drawn) [alpha-Lipoic acid amide] | > 45.8 | > 45.8 |
| CC12CC3CC(C)(C1)CC(N)(C3)C2 [Memantine hydrochloride] | > 45.8 | > 45.8 |
| CC(CCc1ccccc1)NCC(O)c1ccc(O)c(C(N)=O)c1 (stereo not drawn) [Labetalol HCl] | > 45.8 | > 45.8 |
| CN1CCN(C2=Nc3ccccc3Sc3ccc(Cl)cc32)CC1 [Clothiapine] | > 45.8 | > 45.8 |
| C=CC[N+]1([C@H]2C[C@H]3[C@@H]4CC[C@H]5C[C@H](OC(C)=O)[C@@H](N6CCCCC6)C[C@]5(C)[C@H]4CC[C@]3(C)[C@H]2OC(=O)CC)CCCCC1 [Rapacuronium bromide] | > 45.8 | > 45.8 |
| C[C@]12CC[C@H]3[C@@H](CCC4=CC(=O)CC[C@@]43C)[C@@H]1CC[C@@H]2OC(=O)CCc1ccccc1 [Testosterone 17-phenylpropionate] | > 45.8 | > 45.8 |
| Nc1cc(C(Cl)=C(Cl)Cl)c(S(N)(=O)=O)cc1S(N)(=O)=O [Clorsulon] | > 45.8 | > 45.8 |

| Structure (SMILES) | IC50 cell viability (ICRF193 0 nM) [µM] | IC50 cell viability (ICRF193 200 nM) [µM] |
| --- | --- | --- |
| NCCNCCNCCN [Triethylenetetramine] | > 45.8 | > 45.8 |
| CC1(C)S[C@@H]2[C@H](NC(=O)[C@H](N)c3ccccc3)C(=O)N2[C@H]1C(=O)O [AMPICILLIN SODIUM] | > 45.8 | > 45.8 |
| CC(OC(=O)NCC1(CC(=O)O)CCCCC1)OC(=O)C(C)C (stereo not drawn) [GABAPENTIN ENACARBIL] | > 45.8 | > 45.8 |
| NS(=O)(=O)c1cc(C(=O)O)c(NCc2ccco2)cc1Cl [Furosemide] | > 45.8 | > 45.8 |
| COC(c1ccccc1)(c1ccccc1)[C@H](Oc1nc(C)cc(C)n1)C(=O)O [Ambrisentan] | > 45.8 | > 45.8 |
| COc1ccc(C(=O)c2ccccc2O)c(O)c1 [2,2'-Dihydroxy-4-methoxybenzophenone] | > 45.8 | > 45.8 |
| O=C(O)CCCCC(=O)O [Hexanedioic acid] | > 45.8 | > 45.8 |
| O=C(O)c1cc(/N=N/c2ccc(S(=O)(=O)Nc3ccccn3)cc2)ccc1O [Sulfasalazine] | > 45.8 | > 45.8 |
| CNC(=O)C[C@@H](N)C(=O)N[C@@H](C(=O)N[C@@H]1C(=O)N2[C@@H]1SC(C)(C)[C@@H]2C(=O)O)c1ccc(O)cc1 [Aspoxicillin] | > 45.8 | > 45.8 |
| CCCCCCCC(=O)OCC(COC(=O)CCCCCCC)OC(=O)CCCCCCC [Tricaprylin] | > 45.8 | > 45.8 |
| C[C@@H]1O[C@@H]1P(=O)(O)O [FOSFOMYCIN] | > 45.8 | > 45.8 |
| Nc1c(NC/C=C\COc2cc(CN3CCCCC3)ccn2)c(=O)c1=O [Pibutidine] | > 45.8 | > 45.8 |
| CC1(C)S[C@@H]2[C@H](NC(=O)[C@H](NC(=O)N3CCNC3=O)c3ccccc3)C(=O)N2[C@H]1C(=O)O [AZLOCILLIN SODIUM] | > 45.8 | > 45.8 |
| CCCCc1cc2ccccc2c(OCCN(C)C)n1 [Dimethisoquin hydrochloride] | > 45.8 | > 45.8 |
| CCCOC(=O)c1ccc(O)cc1 [Propyl-4-hydroxybenzoate] | > 45.8 | > 45.8 |
| COc1ccc(-c2cc(C(F)F)nn2-c2ccc(S(N)(=O)=O)cc2)cc1F [Deracoxib] | > 45.8 | > 45.8 |
| Nc1nc(F)nc2c1ncn2[C@@H]1O[C@H](COP(=O)(O)O)[C@@H](O)[C@@H]1O [Fludarabine phosphate] | > 45.8 | > 45.8 |
| CC(C)CCCC(C)CCCC(C)CCCCC(C)CCCC(C)CCCC(C)C (stereo not drawn) [Squalane] | > 45.8 | > 45.8 |
| CCCCN1CCCC[C@H]1C(=O)Nc1c(C)cccc1C [Levobupivacaine hydrochloride] | > 45.8 | > 45.8 |
| CN1CCN(C2=Nc3cc(Cl)ccc3Nc3ccccc32)CC1 [Clozapine] | > 45.8 | > 45.8 |
| CN(N=O)C(=O)N[C@@H](C=O)[C@@H](O)[C@H](O)[C@H](O)CO [Streptozotocin] | > 45.8 | > 45.8 |
| CC1=Nc2ccc(Cl)cc2S(=O)(=O)N1 [Diazoxide] | > 45.8 | > 45.8 |

| Structure (SMILES) | IC50 cell viability (ICRF193 0 nM) [µM] | IC50 cell viability (ICRF193 200 nM) [µM] |
| --- | --- | --- |
| COc1ccc(C(=O)CC(=O)c2ccc(C(C)(C)C)cc2)cc1 [Avobenzone] | > 45.8 | > 45.8 |
| OC[C@H]1OC(O)[C@H](O)[C@@H](O)[C@@H]1O (stereo partly drawn) [Dextrose] | > 45.8 | > 45.8 |
| NC[C@@H]1CC[C@@H](N)[C@@H](O[C@H]2[C@H](O)[C@@H](O[C@H]3O[C@H](CO)[C@@H](O)[C@H](N)[C@H]3O)[C@H](N)C[C@@H]2N)O1 [DIBEKACIN] | > 45.8 | > 45.8 |
| Cc1ccccc1-n1c(CF)nc2ccc(N)cc2c1=O [Afloqualone] | > 45.8 | > 45.8 |
| CC(=O)Nc1c(I)cc(I)c(C(=O)O)c1I [Acetrizoic acid] | > 45.8 | > 45.8 |
| CCOc1cc(N)c(Cl)cc1C(=O)NCC1CN(Cc2ccc(F)cc2)CCO1 (stereo not drawn) [Mosapride citrate] | > 45.8 | > 45.8 |
| CC(C)(C)NCC(O)COc1cccc2c1CC(O)C(O)C2 (stereo not drawn) [Nadolol] | > 45.8 | > 45.8 |
| COc1ccc2cc(CCC(C)=O)ccc2c1 [Nabumetone] | > 45.8 | > 45.8 |
| COc1c2c(cc3c1OCO3)CCN(C)C2 [Hydrocotarnine hydrobromide] | > 45.8 | > 45.8 |
| C/C=C1\[C@H]2C=C(C)C[C@]1(N)c1ccc(=O)[nH]c1C2 [Huperzine A] | > 45.8 | > 45.8 |
| Cn1cnc2c1c(=O)[nH]c(=O)n2C [Theobromine] | > 45.8 | > 45.8 |
| C[C@]12C=CC(=O)C=C1CC[C@@H]1[C@@H]2[C@@H](O)C[C@@]2(C)[C@H]1CC[C@]2(O)C(=O)COC(=O)CCC(=O)O [PREDNISOLONE HEMISUCCINATE] | > 45.8 | > 45.8 |
| FC(F)OC(F)(F)C(F)Cl (stereo not drawn) [Enflurane] | > 45.8 | > 45.8 |
| O=C(O)[C@H](O)c1ccccc1 [D-(-)-Mandelic acid] | > 45.8 | > 45.8 |
| NS(=O)(=O)c1cc(C(=O)O)cc(N2CCCC2)c1Oc1ccccc1 [Piretanide] | > 45.8 | > 45.8 |
| CCOC(=O)CC(SP(=S)(OC)OC)C(=O)OCC (stereo not drawn) [Malathion] | > 45.8 | > 45.8 |
| CCOC(=O)CN[C@@H](C(=O)N1CC[C@H]1C(=O)NCc1ccc(/C(N)=N\O)cc1)C1CCCCC1 [Ximelagatran] | > 45.8 | > 45.8 |
| CC[C@H](C)[C@H](N)C(=O)O (racemic) [DL-Isoleucine] | > 45.8 | > 45.8 |
| C#C[C@]1(O)CC[C@H]2[C@@H]3CCC4=CC(=O)CC[C@@H]4[C@H]3CC[C@@]21C [Norethindrone] | > 45.8 | > 45.8 |
| C[N+]1(CCF)[C@@H]2CC[C@H]1C[C@@H](OC(=O)C(O)(c1ccccc1)c1ccccc1)C2 (stereo partly drawn) [Flutropium bromide] | > 45.8 | > 45.8 |

Reference: the supplement of paper PMC12137928
